# Reference: patent US8530648B2, “Diaza-spiro[5.5]undecanes” (Novartis AG, priority 2009, dated 2013)
# Legend:
# hOx1R = hOx1R (Homo sapiens (Human), UniProt O43613); assay: Calcium accumulation in cells (FLIPR), hOx1R; assay type: cell-based; details: for inhibition at 10 µM: measured at a concentration of 10 μM of compound; for Ki: inhibition of orexin A induced calcium accumulation, Cheng and Prusoff correction
# Protocol: (§1) Calcium Accumulation in Cells (FLIPR):
# (§2) Cells expressing human orexin 1 or human orexin 2 receptors, were seeded at 8,000 cells/well in 384 well black-walled clear bottom, poly-D-lysine coated plates. After 24 h, the medium was removed and cells were washed once with phosphate buffered saline and serum-deprived overnight in assay buffer (130 mM NaCl, 5.4 mM KCl, 1.8 mM CaCl2, 0.8 mM MgSO4, 0.9 mM NaH2PO4, 25 mM glucose, 20 mM HEPES, pH 7.4) containing bovine serum albumin (1% w/v).
# (§3) On the day of the experiment, the cells seeded in black plates were treated with assay buffer containing the Ca^2+ sensitive fluorescent dye Fluo-4-AM (2 μM), and probenecid (0.1 mM). After 1 h plates were washed twice with, and resuspended in, assay buffer containing probenecid (0.1 mM) using a multi plate washer. […] Fluorescence measurements were then continued every 1 S for 120 S followed by every 4 S for 240 S.
# (§4) The measurements were typically made in two sequences:
# (§5) Compounds of formula I were tested usually in a concentration range from 10^−9 M to 10^−5 M.
# (§6) In the second round, performed one hour later (to allow for equilibration), Orexin A was tested either in the absence (calibration curves, Orexin A agonist controls) or in the presence of compounds of formula I to determine antagonism.
# hOx2R = hOx2R (Homo sapiens (Human), UniProt O43614); assay: Calcium accumulation in cells (FLIPR), hOx2R; assay type: cell-based; details: for inhibition at 10 µM: measured at a concentration of 10 μM of compound; for Ki: inhibition of orexin A induced calcium accumulation, Cheng and Prusoff correction
# Protocol: as §1, §2, §3, §4, §5, §6
# Sequence of hOx1R (O43613 whole entry): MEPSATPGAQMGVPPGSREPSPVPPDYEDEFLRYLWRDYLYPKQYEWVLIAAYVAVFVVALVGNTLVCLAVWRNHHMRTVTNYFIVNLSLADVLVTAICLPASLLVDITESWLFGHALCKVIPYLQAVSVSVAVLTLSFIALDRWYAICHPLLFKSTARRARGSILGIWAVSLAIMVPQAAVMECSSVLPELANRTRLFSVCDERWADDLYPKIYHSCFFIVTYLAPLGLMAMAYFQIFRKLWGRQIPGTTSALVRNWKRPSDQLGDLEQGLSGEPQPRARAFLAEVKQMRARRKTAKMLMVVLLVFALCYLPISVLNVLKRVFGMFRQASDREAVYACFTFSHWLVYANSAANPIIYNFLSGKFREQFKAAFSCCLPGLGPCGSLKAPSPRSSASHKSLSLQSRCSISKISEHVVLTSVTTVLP
# Sequence of hOx2R (O43614 whole entry): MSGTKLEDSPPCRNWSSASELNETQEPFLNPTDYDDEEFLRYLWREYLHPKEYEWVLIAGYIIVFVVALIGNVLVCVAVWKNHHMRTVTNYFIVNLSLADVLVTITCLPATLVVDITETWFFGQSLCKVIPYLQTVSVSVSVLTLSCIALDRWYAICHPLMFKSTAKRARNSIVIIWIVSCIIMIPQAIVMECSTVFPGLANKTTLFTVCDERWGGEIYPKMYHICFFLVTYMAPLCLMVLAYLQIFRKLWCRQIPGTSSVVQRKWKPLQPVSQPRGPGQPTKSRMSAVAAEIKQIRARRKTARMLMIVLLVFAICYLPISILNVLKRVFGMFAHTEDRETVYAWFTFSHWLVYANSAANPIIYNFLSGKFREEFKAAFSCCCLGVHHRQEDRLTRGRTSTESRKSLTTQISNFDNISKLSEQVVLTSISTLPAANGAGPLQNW
SMILES,inhibition at 10 µM (hOx1R) [%],inhibition at 10 µM (hOx2R) [%],Ki (hOx1R) [nM],Ki (hOx2R) [nM]
"CC(C)c1nc(CN2CCCC3(CCN(c4cnc5ccccc5n4)CC3)C2=O)co1 [Example 176, 2-((2-isopropyloxazol-4-yl)methyl)-9-(quinoxalin-2-yl)-2,9-diazaspiro[5.5]undecan-1-one]",< 10,< 10,–,–
"Cn1c(CN2CCCC3(CCN(c4cnc5ccccc5n4)CC3)C2=O)nc2ccccc21 [Example 30, 2-((1-methyl-1H-benzo[d]imidazol-2-yl)methyl)-9-(quinoxalin-2-yl)-2,9-diazaspiro[5.5]undecan-1-one]",17,33,–,–
"O=C1N(Cc2cncn2-c2ccccc2)CCCC12CCN(c1cnc3ccccc3n1)CC2 [Example 110, 2-((1-phenyl-1H-imidazol-5-yl)methyl)-9-(quinoxalin-2-yl)-2,9-diazaspiro[5.5]undecan-1-one]",–,–,4210,945
"Cn1ncc2cccc(CN3CCCC4(CCN(c5cnc6ccccc6n5)CC4)C3=O)c21 [Example 107, 2-((1-methyl-1H-indazol-7-yl)methyl)-9-(quinoxalin-2-yl)-2,9-diazaspiro[5.5]undecan-1-one]",–,–,728,115
"O=C1N(Cc2cccnc2)CCCC12CCN(c1cnc3ccccc3n1)CC2 [Example 64, 2-(pyridin-3-ylmethyl)-9-(quinoxalin-2-yl)-2,9-diazaspiro[5.5]undecan-1-one]",32,–,–,718
"O=C1N(Cc2nnnn2-c2ccccc2)CCCC12CCN(c1cnc3ccccc3n1)CC2 [Example 122, 2-((1-phenyl-1H-tetrazol-5-yl)methyl)-9-(quinoxalin-2-yl)-2,9-diazaspiro[5.5]undecan-1-one]",31,–,–,725
"Cc1ncc(CN2CCCC3(CCN(c4cnc5ccccc5n4)CC3)C2=O)c2c1OC(C)(C)OC2 [Example 117, 9-(quinoxalin-2-yl)-2-((2,2,8-trimethyl-4H-[1,3]dioxino[4,5-c]pyridin-5-yl)methyl)-2,9-diazaspiro[5.5]undecan-1-one]",–,–,2380,249
"O=C1N(Cc2ccc(C(F)(F)F)nc2)CCCC12CCN(c1cnc3ccccc3n1)CC2 [Example 90, 9-(quinoxalin-2-yl)-2-((6-(trifluoromethyl)pyridin-3-yl)methyl)-2,9-diazaspiro[5.5]undecan-1-one]",17,12,–,–
"COc1ccccc1-n1ccnc1CN1CCCC2(CCN(c3cnc4ccccc4n3)CC2)C1=O [Example 112, 2-((1-(2-methoxyphenyl)-1H-imidazol-2-yl)methyl)-9-(quinoxalin-2-yl)-2,9-diazaspiro[5.5]undecan-1-one]",–,–,3520,1600
"O=C1CCCC2(CCN(c3nc4ccc(Cl)cc4o3)CC2)N1Cc1cccc2[nH]ccc12 [Example 139, 1-((1H-indol-4-yl)methyl)-9-(6-chlorobenzo[d]oxazol-2-yl)-1,9-diazaspiro[5.5]undecan-2-one]",–,–,541,105
"COCc1cccc(CN2CCCC3(CCN(c4cnc5ccccc5n4)CC3)C2=O)c1 [Example 80, 2-(3-(methoxymethyl)benzyl)-9-(quinoxalin-2-yl)-2,9-diazaspiro[5.5]undecan-1-one]",–,–,2990,96
"O=C1N(Cc2cnc3ccccn23)CCCC12CCN(c1cnc3ccccc3n1)CC2 [Example 70, 2-(imidazo[1,2-a]pyridin-3-ylmethyl)-9-(quinoxalin-2-yl)-2,9-diazaspiro[5.5]undecan-1-one]",–,–,3420,258
"Cc1nn(-c2ccccc2)nc1CN1CCCC2(CCN(c3cnc4ccccc4n3)CC2)C1=O [Example 175, 2-((5-methyl-2-phenyl-2H-1,2,3-triazol-4-yl)methyl)-9-(quinoxalin-2-yl)-2,9-diazaspiro[5.5]undecan-1-one]",< 10,12,–,–
"O=C1CCCC2(CCN(c3cnc4ccccc4n3)CC2)N1Cc1ccccc1 [Example 134, 1-benzyl-9-(quinoxalin-2-yl)-1,9-diazaspiro[5.5]undecan-2-one]",–,–,1440,161
"O=C1CCCC2(CCN(c3nc4ccccc4[nH]3)CC2)N1Cc1cccc2[nH]ccc12 [Example 138, 1-((1H-indol-4-yl)methyl)-9-(1H-benzo[d]imidazol-2-yl)-1,9-diazaspiro[5.5]undecan-2-one]",–,–,3790,1970
"O=C1CCCC2(CCN(c3cnc4ccccc4n3)CC2)N1Cc1noc2ccccc12 [Example 135, 1-(benzo[d]isoxazol-3-ylmethyl)-9-(quinoxalin-2-yl)-1,9-diazaspiro[5.5]undecan-2-one]",–,–,242,185
"CN1CCc2c(CN3CCCC4(CCN(c5cnc6ccccc6n5)CC4)C3=O)cccc21 [Example 145, 2-((1-methylindolin-4-yl)methyl)-9-(quinoxalin-2-yl)-2,9-diazaspiro[5.5]undecan-1-one]",–,–,–,636

# The next lines start with the values.
inhibition at 10 µM (hOx1R) [%],inhibition at 10 µM (hOx2R) [%],Ki (hOx1R) [nM],Ki (hOx2R) [nM],SMILES
–,–,1100,142,"N#Cc1ccc(F)c(CN2CCCC3(CCN(c4cnc5ccccc5n4)CC3)C2=O)c1 [Example 99, 4-fluoro-3-((1-oxo-9-(quinoxalin-2-yl)-2,9-diazaspiro[5.5]undecan-2-yl)methyl)benzonitrile]"
–,–,1310,158,"O=C1N(Cc2nccc3ccccc23)CCCC12CCN(c1cnc3ccccc3n1)CC2 [Example 93, 2-(isoquinolin-1-ylmethyl)-9-(quinoxalin-2-yl)-2,9-diazaspiro[5.5]undecan-1-one]"
–,–,1810,535,"Cc1nc2ccccc2nc1N1CCC2(CCCN(Cc3c[nH]c4ccccc34)C2=O)CC1 [Example 170, 2-((1H-indol-3-yl)methyl)-9-(3-methylquinoxalin-2-yl)-2,9-diazaspiro[5.5]undecan-1-one]"
14,20,–,–,"O=C1N(Cc2c[nH]c3ccccc23)CCCC12CCN(c1nc(-c3ccc(F)cc3)cs1)CC2 [Example 172, 2-((1H-indol-3-yl)methyl)-9-(4-(4-fluorophenyl)thiazol-2-yl)-2,9-diazaspiro[5.5]undecan-1-one]"
–,–,1160,156,"O=C1N(Cc2c[nH]c3ccccc23)CCCC12CCN(c1nccc(-c3ccncc3)n1)CC2 [Example 166, 2-((1H-indol-3-yl)methyl)-9-(4-(pyridin-4-yl)pyrimidin-2-yl)-2,9-diazaspiro[5.5]undecan-1-one]"
–,–,945,205,"Cc1ccc(C)c(CN2CCCC3(CCN(c4cnc5ccccc5n4)CC3)C2=O)c1 [Example 20, 2-(2,5-dimethylbenzyl)-9-(quinoxalin-2-yl)-2,9-diazaspiro[5.5]undecan-1-one]"
–,–,646,115,"O=C1N(Cc2c[nH]c3ccccc23)CCCC12CCN(c1nccc(-c3ccccc3)n1)CC2 [Example 154, 2-((1H-indol-3-yl)methyl)-9-(4-phenylpyrimidin-2-yl)-2,9-diazaspiro[5.5]undecan-1-one]"
–,–,1250,267,"O=C1N(Cc2cccc3c2CCN3)CCCC12CCN(c1cnc3ccccc3n1)CC2 [Example 126, 2-(indolin-4-ylmethyl)-9-(quinoxalin-2-yl)-2,9-diazaspiro[5.5]undecan-1-one]"
–,–,591,197,"O=C1N(Cc2noc3ccccc23)CCCC12CCN(c1cnc3ccccc3n1)CC2 [Example 36, 2-(benzo[d]isoxazol-3-ylmethyl)-9-(quinoxalin-2-yl)-2,9-diazaspiro[5.5]undecan-1-one]"
–,–,932,151,"O=C1N(Cc2cccc3cnccc23)CCCC12CCN(c1cnc3ccccc3n1)CC2 [Example 55, 2-(isoquinolin-5-ylmethyl)-9-(quinoxalin-2-yl)-2,9-diazaspiro[5.5]undecan-1-one]"
–,–,932,140,"N#Cc1ccccc1CN1CCCC2(CCN(c3cnc4ccccc4n3)CC2)C1=O [Example 124, 2-((1-oxo-9-(quinoxalin-2-yl)-2,9-diazaspiro[5.5]undecan-2-yl)methyl)benzonitrile]"
–,–,3140,1240,"Cc1nnc(-c2ccc(CN3CCCC4(CCN(c5cnc6ccccc6n5)CC4)C3=O)cc2)o1 [Example 109, 2-(4-(5-methyl-1,3,4-oxadiazol-2-yl)benzyl)-9-(quinoxalin-2-yl)-2,9-diazaspiro[5.5]undecan-1-one]"
–,–,1400,196,"Cn1ncc2c(CN3CCCC4(CCN(c5cnc6ccccc6n5)CC4)C3=O)cccc21 [Example 108, 2-((1-methyl-1H-indazol-4-yl)methyl)-9-(quinoxalin-2-yl)-2,9-diazaspiro[5.5]undecan-1-one]"
–,–,925,212,"Cn1nc(CN2CCCC3(CCN(c4cnc5ccccc5n4)CC3)C2=O)c2ccccc21 [Example 142, 2-((1-methyl-1H-indazol-3-yl)methyl)-9-(quinoxalin-2-yl)-2,9-diazaspiro[5.5]undecan-1-one]"
–,–,1530,239,"O=C1N(Cc2c[nH]c3ccccc23)CCCC12CCN(c1ncnc3[nH]ccc13)CC2 [Example 155, 2-((1H-indol-3-yl)methyl)-9-(7H-pyrrolo[2,3-d]pyrimidin-4-yl)-2,9-diazaspiro[5.5]undecan-1-one]"
